Experimental data reported in ChEMBL document CHEMBL3861967, “Cyclopeptide Alkaloids from Hymenocardia acida” (J Nat Prod, 2016).

How the values were obtained:
[1] = test system: Plasmodium falciparum; test: Antiplasmodial activity against chloroquine-resistant Plasmodium falciparum K1 infected in human erythrocytes assessed as reduction in parasitemia after 72 hrs by lactate dehydrogenase assay; format: functional, cell-based; conditions: K1, 72 h
[2] = Cytotoxicity against human MRC5 cells assessed as decrease in cell viability after 7 days by MTT assay; format: toxicity, cell-based

Row | Structure (SMILES) | IC50 [1] [µM] | IC50 at 7 days [2] [µM]
1 | CCC(C)[C@@H](C(=O)N[C@H](C(=O)N[C@@H]1C(=O)N[C@@H](Cc2c[nH]c3ccccc23)C(=O)NCC(=O)c2ccc(cc2)OC1(C)C)C(C)C)[N+](C)(C)[O-] (stereo partly drawn) | 12.2 | > 64
2 | CCC(C)[C@@H](C(=O)N[C@H](C(=O)N[C@@H]1C(=O)N[C@@H](Cc2c[nH]c3ccccc23)C(=O)NCC(O)c2ccc(cc2)OC1(C)C)C(C)C)N(C)C (stereo partly drawn) | 17.5 | > 64
3 | CCC(C)[C@@H](C(=O)N[C@H](C(=O)N[C@@H]1C(=O)N[C@@H](Cc2c[nH]c3ccccc23)C(=O)NCC(=O)c2ccc(cc2)OC1(C)C)C(C)C)N(C)C (stereo partly drawn) | 16.4 | 51.1
4 | CCC(C)[C@H](NC(=O)[C@H](C(C)CC)N(C)C)C(=O)N[C@@H]1C(=O)N[C@@H](Cc2c[nH]cn2)C(=O)NCC(=O)c2ccc(cc2)O[C@H]1C(C)C (stereo partly drawn) | 27.9 | > 64
